By EC50 is commonly meant the concentration at which the effect is half-maximal. As usually defined, the IC50 is the concentration needed to halve the response being measured. By CC50 is commonly meant the concentration at which the toxic effect on the cells reaches its halfway point. Usually half-life stands for the time needed for the level to fall by half in the phase considered. For orientation: microsomal CLint means a measure of how fast metabolising enzymes remove a compound, apart from limits set by blood flow. Higher therefore signals rapid turnover.

The values that follow come from patent publication US20250179033A1 (priority 2021, published 2025).

Where two headings read alike, the source gives them in different places. Bounds are passed on as bounds.

Series [1] in a line: Human liver microsome stability. In kind it is in vitro ADME. The protocol: (§1) Mouse/Human liver microsome stability: A liver microsome solution (197.5 μL, 1.27 mg/ml protein concentration) (Sekisui Xenotech, Kansas City, KS) was aliquoted into 1.1 ml tubes, to which 2.5 μL of positive control and compound stock solutions (100 μM in DMSO) were added. The tubes were vortexed gently, pre-incubated for 5 min at 37° C., then 50 μL of 5 mM NADPH or LM buffer (no NADPH buffer) was added into the tubes. For analysis, an aliquot of 15 μL was removed from each tube at 0, 5, 15, 30 and 60 min (without-NADPH reaction: 0, 30 and 60 min) and quenched with 300 μL of 25 ng/ml propranolol in acetonitrile. Samples were vigorously vortexed for 1 min and then centrifuged at 4,000 rpm for 15 min at 4° C. 100 μL of supernatant from each sample was transferred to 0.65 ml tubes for LCMS analysis. The amount of parent compound was determined on the basis of the peak area ratio (compound area to IS area) for each time point. Clearance rates were calculated by the equation: […]
(Liver microsomes are vesicles of endoplasmic reticulum, rich in cytochrome P450 enzymes.)

A short description of series [2]: Mouse liver microsome stability. Type of series: in vitro ADME. As to the method:
as §1

Series [3] is described as follows: in vitro. In kind it is in vitro ADME, human. As to the method:
Protein Binding in Plasma: The donor side of dialysis inserts were filled with 200 μL plasma (human and mouse; source BioDuro, San Diego, California, United States of America) containing 5 μM drug and 0.5% of DMSO and the receiver side of the dialysis inserts was filled with 350 μL of PBS buffer (100 mM, pH 7.4). The prepared dialysis apparatus was placed in a shaker (37° C., 100 rpm) for 5 hours. Two tubes with plasma containing 5 μM experimental compound were also prepared for stability test: one tube was placed in the […] for 5 hours and the other tube was placed in shaker ([…], 100 rpm) for 5 hours. Samples were collected from the donor and receiver sides of each dialysis insert. The same volume of blank plasma was added to buffer samples and blank buffer to plasma samples to make sure all sample mixtures contain 50% plasma and 50% buffer. 50 μL of each sample was mixed with 300 μL of acetonitrile containing 25 ng/ml internal standard (propranolol). All samples were vortexed for 1 minute and then centrifuged at 4000 rpm, 4° C. for 15 min. 100 μL of the supernatant was transferred to 0.65 ml tube for LCMS analysis. The amount of compound was determined on the basis of the peak area ratio (compound area to internal standard area) for the two sides, and protein binding is determined using the following equations: % Bound=100×([Area Ratio of Donor]5h*5−[Area Ratio of Receiver]5h)/([Area Ratio of Donor]5h*5). The percentage remaining at 37° C. after 5 hours was calculated on the basis of the amount measured at 0° C. after 5 hours.

Series [4] concerns the target T1, HIV I reverse transcriptase (Human immunodeficiency virus type 1 group M subtype B, UniProt P03366).
T1 construct: purchased Roche
Put plainly: Reverse transcriptase inhibition assay (Roche kit, ELISA). In kind it is biochemical. The protocol:
NNRTI assay methods: Inhibition of HIV I reverse transcriptase was assessed via a kit from Roche (Indianapolis-Marion County, Indiana, United States of America) using the manufacture's protocol (500 μM final reverse transcriptase reaction amount). […] DMSO concentrations were kept the same for all dilutions used within an assay (0.05%). Final compound concentrations ranged from 5000 nM-0.05 nM with 2-fold serial dilutions. 96-well plates were set up with 20 μL compound dilution, 20 μL reverse transcriptase, and 20 μL template/nucleotides and incubated at 37° C. 5% CO2 for 1 hr in a reaction plate. 50 μL of each reaction was then transferred to a streptavidin conjugated 96-well plate and an ELISA assay was run based on manufacture's protocol. All compounds were tested in sextuplicate, with single wells of efavirenz dilutions on each plate.

Series [5] deals with HIV-1 IIIB (wild-type). Put plainly: HIV inhibition assay in TZM-bl cells, wild-type. In kind it is cell-based. The conditions noted are these: Human immunodeficiency virus 1, IIIB; for IC50: read-out: IC50 (TZM, WT). The method, boiled down: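 TZM-bl cells with 15 μg/mL DEAE-dextran were infected with H9-grown HIV-1 IIIB, wild-type or A17 (Y181C/K103N), in the presence of compound (0.005% or 0.05% DMSO) for 48 h at 37 °C. Luciferase RLU was read after lysis. Toxicity was measured in parallel by CellTiter-Blue fluorescence.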

For series [6], the system named is TZM-bl cells. Put plainly: Toxicity assay in TZM-bl cells. Type of series: cell-based. The method, boiled down: (§2)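 TZM-bl cells (2×10^5/mL, with DEAE-dextran) were exposed to serially diluted compound plus virus at a constant 0.005% or 0.05% DMSO for 48 h at 37 °C. CellTiter-Blue was added at 46 h and incubated 2 h. Viability was read as fluorescence at 560/590 nm after stopping with 1.5% SDS.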

Series [7] in a line: Toxicity assay in TZM-bl cells. The conditions noted are these: human. In kind it is cell-based. An outline of the steps: as §2
[8] abbreviates: Table 3, TZM-bl, ± SEM, minimum 6 replicates.

Take `Nc1nc(Nc2ccc(Cl)cc2)nn1S(=O)(=O)c1ccc2ccccc2c1` [Compound 1, N3-(4-chlorophenyl)-1-(2-naphthylsulfonyl)-1,2,4-triazole-3,5-diamine]: the “Human liver microsomes, stability in words” value in series [1] is listed as “protein, stable”. Also, the “Human liver microsomes CLint” value in series [1] (human, liver microsomes, 1 μM) was 2.0 μL/min/mg protein. Further, in series [2], the “Mouse liver microsomes, stability in words” value is given as “protein, stable”. Also, the “Mouse liver microsomes CLint” value in series [2] (mouse, liver microsomes, 1 μM) worked out at 10.4 μL/min/mg protein. The “Human plasma protein binding” value in series [3] (5 μM, dialysis 5 hours) is more than 99.9%. Further, the EC50 in series [4] turned out to be 4840 nM. The IC50 was 9.33 ± 2.27 nM in series [5] (setting [8]) and 9.33 nM in series [5] (Table 4, TZM-bl). In series [6], the “Qualitative Cell Toxicity within inhibition range” value was “None”. In series [7], this molecule yielded a CC50 at 48 h of more than 1000 nM.

Regarding `N#C/C=C/c1ccc2c(S(=O)(=O)n3nc(Nc4ccc(C#N)c(Cl)c4)nc3N)cccc2c1` [Compound 20, 4-[[5-amino-1-[[6-[2-cyanovinyl]-1-naphthyl]sulfonyl]-1,2,4-triazol-3-yl]amino]-2-chloro-benzonitrile], the “Human liver microsomes, stability in words” value in series [1] is on record as “stable”. In addition, the half-life at 1 μM in series [1] (human, liver microsomes) was found to be 0.897 h; in series [2] (mouse, liver microsomes), 2.07 h. For the same molecule, the microsomal CLint at 1 μM in series [1] (human, liver microsomes) was found to be 25.8 µL/min/mg; in series [2] (mouse, liver microsomes), 11.1 µL/min/mg. For the same molecule, in series [2], the “Mouse liver microsomes, stability in words” value is “stable”. Also, the half-life at 5 μM in series [3] (human, plasma) is more than 6.21 h. For the same molecule, the fraction unbound in series [3] (human, plasma, pH 7.4, 5 μM, dialysis 5 hours, read-out: Human plasma protein binding) is less than 0.001. The EC50 in series [4] stood at 4060 nM; in series [5] (text b494, FIG. 2F, read-out: antiviral activity against wildtype, EC50), 0.22 nM. In addition, the IC50 turned out to be 1350 nM in series [4]; 0.263 ± 0.05 nM in series [5] (setting [8]); 0.309 nM in series [5] (Table 4, TZM-bl). For the same molecule, in series [4], the “disparity between the IC50s for in-cell (TZM-bl) and reverse transcriptase HIV I inhibition” value is on record as 1000 fold. In addition, the “Qualitative Cell Toxicity within inhibition range” value in series [6] (Table 3, TZM-bl) is given as “None”. Also, the “Quantitative Cell Toxicity” value in series [6] (Table 3, TZM-bl) was 4.06 µM. For the same molecule, the cytotoxic concentration (CC50) at 48 h in series [7] (Table 4, TZM-bl, read-out: CC50 (TZM)) is 4950 nM; in series [7] (text b494, FIG. 2F, read-out: cytotoxicity CC50), 5350 nM.
